“Also recorded” adds a separate entry of the source.
How the values were obtained:
Wistar female rats [1] = assay: Symptoms noticed after administration; assay type: in vivo, rat; details: also seen with 20% DMSO vehicle; stated to be induced by DMSO
From the text: No other symptom was noticed.

OxR2 = biological target: T1, OxR2 (Homo sapiens, UniProt O43614); details: read-out: Human OxR2 FLIPR; cited from earlier work
T1 sequence (O43614 1-444): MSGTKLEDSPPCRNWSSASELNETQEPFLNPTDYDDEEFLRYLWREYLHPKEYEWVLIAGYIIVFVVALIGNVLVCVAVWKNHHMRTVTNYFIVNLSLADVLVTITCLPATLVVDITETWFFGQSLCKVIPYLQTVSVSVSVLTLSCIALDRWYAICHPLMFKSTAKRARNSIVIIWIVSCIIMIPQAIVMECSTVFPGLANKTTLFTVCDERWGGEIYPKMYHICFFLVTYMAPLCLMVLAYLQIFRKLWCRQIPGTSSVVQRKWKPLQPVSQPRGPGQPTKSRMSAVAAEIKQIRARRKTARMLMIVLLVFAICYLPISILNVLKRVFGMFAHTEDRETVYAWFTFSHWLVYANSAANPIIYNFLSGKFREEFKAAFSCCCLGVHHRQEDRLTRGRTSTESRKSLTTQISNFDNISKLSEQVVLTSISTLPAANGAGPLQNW

P-gp = P-gp (Homo sapiens, UniProt P08183); details: cited from earlier work
Chain of P-gp (P08183 whole entry): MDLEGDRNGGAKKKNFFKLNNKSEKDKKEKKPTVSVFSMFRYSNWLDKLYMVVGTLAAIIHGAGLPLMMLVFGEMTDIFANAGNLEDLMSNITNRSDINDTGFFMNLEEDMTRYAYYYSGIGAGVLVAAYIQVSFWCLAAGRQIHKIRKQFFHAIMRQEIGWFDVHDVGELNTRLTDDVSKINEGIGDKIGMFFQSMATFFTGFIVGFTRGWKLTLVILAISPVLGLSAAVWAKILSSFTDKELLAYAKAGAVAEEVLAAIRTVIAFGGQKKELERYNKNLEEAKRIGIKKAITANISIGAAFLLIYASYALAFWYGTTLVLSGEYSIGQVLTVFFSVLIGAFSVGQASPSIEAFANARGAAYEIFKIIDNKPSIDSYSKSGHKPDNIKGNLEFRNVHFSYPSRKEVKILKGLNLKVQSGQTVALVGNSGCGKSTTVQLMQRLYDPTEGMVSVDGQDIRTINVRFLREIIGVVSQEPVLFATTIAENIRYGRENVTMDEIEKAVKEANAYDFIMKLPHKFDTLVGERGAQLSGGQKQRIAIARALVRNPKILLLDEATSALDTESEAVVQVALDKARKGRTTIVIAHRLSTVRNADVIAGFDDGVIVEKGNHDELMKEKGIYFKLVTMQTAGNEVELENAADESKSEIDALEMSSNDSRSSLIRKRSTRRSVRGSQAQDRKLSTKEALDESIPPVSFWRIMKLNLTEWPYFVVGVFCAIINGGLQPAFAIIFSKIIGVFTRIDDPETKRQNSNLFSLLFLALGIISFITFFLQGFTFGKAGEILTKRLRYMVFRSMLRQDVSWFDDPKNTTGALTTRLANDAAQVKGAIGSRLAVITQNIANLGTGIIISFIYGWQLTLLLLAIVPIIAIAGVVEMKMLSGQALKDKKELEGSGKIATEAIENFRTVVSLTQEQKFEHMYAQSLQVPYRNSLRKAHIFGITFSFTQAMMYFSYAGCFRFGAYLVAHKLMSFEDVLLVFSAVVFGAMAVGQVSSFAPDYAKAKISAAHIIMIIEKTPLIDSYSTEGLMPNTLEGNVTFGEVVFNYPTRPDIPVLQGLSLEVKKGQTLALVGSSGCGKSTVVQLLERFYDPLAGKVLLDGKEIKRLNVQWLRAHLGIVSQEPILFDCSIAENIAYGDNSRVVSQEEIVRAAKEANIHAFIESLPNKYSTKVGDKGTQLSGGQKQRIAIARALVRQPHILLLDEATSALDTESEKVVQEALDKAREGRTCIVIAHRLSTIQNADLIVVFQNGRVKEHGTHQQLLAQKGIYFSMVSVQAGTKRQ

[2] = Bergman et al. 2008; cited from earlier work
[3] = 100 mpk ip 30 min; cited from earlier work
Wistar female rats [4] = assay: Open-field test (OFT) in rats under shifted photoperiods
Protocol: Activity was tested in open boxes (open-fields: 100 cm wide, 100 cm long, 50 cm high) made of PVC. Animals' activity was recorded by an electronic videotracking detection system (Viewpoint, France) allowing to detect the distance travelled and the time spent in different parts of the open-field.
Light intensity was 7-10 Lux at the center of the open-fields.
Animals were individually placed for a 10-min session in the center of one quadrant of the open-field.
Parameters analyzed were: • 1) One parameter taken as an index of locomotor-exploratory behavior: • The distance travelled in the open-field. • 2) Two parameters taken as indices of anxiety behavior: • a) % Dist Cent=the percentage of distance travelled in the central 60×60 cm area of the open-field. • b) % Time cent=the percentage of time spent in the central 60×60 cm area of the open-field.
(§1) A difference was considered: • 1) Statistically significant: p≦0.05. • 2) Close-to-significant difference: 0.05<p≦0.10. • 3) Not significant: p>0.10.

[5] = Body weight / growth rate in rats under shifted photoperiods; details: for growth rate: SL-TCS vs SL-Veh, IP (FIGS. 25, 27); for Body weight in percent of initial body weight (d−4): short light (SL) rats, mean
Protocol: Rats were weighed three times a week in order to examine the effect of L/D changes and the effects of treatments on the body weight.
Animals' body weight was recorded three days per week. The body weight on day d-4 was considered as the initial body weight.
Initial body weight (BW) between recorded on day d-4, before the initiation of L/D change analyzed by 1-factor ANOVA and Student's t-test.
Therefore, the following analyses were performed on the BW expressed in percentage of the initial BW. • 2) Effect of L/D condition:
The BW expressed in percentage of the initial BW was compared between by ANOVA for repeated measures (from day dl to day d54): • a) On C-Veh, LL-Veh and SL-Veh groups: overall effect. • b) On C-Veh and LL-Veh groups: effect of LL. • c) On C-Veh and SL-Veh groups: effect of SL. • d) On LL-Veh and SL-Veh groups: difference LL vs. SL. • 3) Effect of vehicle:

Wistar female rats [6] = assay: Forced swimming test (FST) in rats under shifted photoperiods; details: TCS 1102 20 mg/kg IP
Protocol: Animals of CL and LL groups received the vehicles in the same conditions.
The same animals were tested by the same experimenter on the two FST sessions. The same proportion of animals of each group was tested by each experimenter.
The apparatus used for the experiment consisted of glass cylinders (64 cm high, 25 cm diameter) filled with 30 cm 25° C. water. The experiment was recorded with a camcorder, placed in front of the glass cylinder and connected to a screen, allowing the experimenter to watch the test online.
Light intensity was 15-20 Lux at the level of glass cylinders.
The behavior of the rat was measured on the second trial.
Behavior was classified as one of three behaviors: • 1) Immobility, defined as floating in the water without struggling and using only small movements to keep the head above water. • 2) Swimming, defined as moving limbs in an active manner, more than required to keep the head above water and causing movement among quadrants of the cylinder. • 3) Climbing, defined as making active movements with forepaws moving in and out of the water, usually directed against the side of the cylinder. Parameters analyzed were:
1) Imo=the immobility time.
2) Swm=the swimming time.
3) Clb=the climbing time.
A depressive-like profile is indicated by an increase of the immobility time and a decrease of either the swimming time or the climbing time. Conversely, an antidepressant-like effect is indicated by a decrease of the immobility time and an increase of either the swimming time or the climbing time.
as §1

Wistar female rats [7] = assay: Elevated-plus maze (EPM) test in rats under shifted photoperiods; details: EPM
From the text: Animals were subjected to the elevated-plus maze (EPM) test only once during the period of the study: at the 43th, 44th or 45th days of treatment (see Table 2).
The apparatus consisted of a plus-shaped maze, elevated 50 cm from the floor, with two opposite open arms, 50×10 cm, crossed at right angles by two arms of the same dimensions, but enclosed by 40-cm-high black opaque walls with an open roof. In addition a 1-cm-high edge made of Plexiglas surrounded the open arms to avoid falls.
Light intensity was 10 Lux at the level of open arms.
The experiment was recorded with a camcorder, placed 1.5 m above the maze and connected to a screen, allowing the experimenter to watch the test online.
Animals were individually placed for a 5-min session in the center of the plus-maze. The number of arm entries and the time spent in arms were recorded. An arm entry is defined as all four paws into the arm.
Other parameters were recorded: the time spent in open arms, the number of open arm entries, the time spent in enclosed arms, the number of enclosed arm entries and the time spent in the center of the maze.
1) Enclosed arm entries: entries into the protected arms of the EPM
as §1

[8] = OFT first session, SL-TCS vs SL-DMSO, 20 mg/kg IP
[9] = OFT first session, Short Light rats, TCS 20 mg/kg IP daily, group mean
[10] = OFT first session, TCS 1102 20 mg/kg IP
[11] = OFT reanalysis, SL rats, IP TCS 1102
[12] = SL-TCS vs SL-DMSO, 20 mg/kg IP, 20 mg/kg
[13] = short light (SL) rats, group mean, DMSO vehicle comparison groups

symptoms after IP injection (Wistar female rats [1]): Abdominal contractions lasting 10-20 sec
SMILES: Cn1c(SCC(=O)N2CCC[C@H]2C(=O)Nc2ccccc2-c2ccccc2)nc2ccccc21 [TCS 1102]
IC50 (OxR2): 4 nM
P-gp (B to A/A to B) (P-gp): 1.4
rat in vivo half life [2]: around 0.3 hours
Brain level [3]: 2370 nM
CSF level [3]: 43 nM
plasma level [3]: 3500 nM
effect on the % Time Center (Wistar female rats [4]; [8]): Tended to increase
effect on the Distance (Wistar female rats [4]; [8]): Did not significantly modify
effect on the % Dist Center (Wistar female rats [4]; OFT first session, SL-TCS vs SL-DMSO, 20 mg/kg IP, 20 mg/kg): reduced the decrease; also recorded: Increased
% Dist Cent (Wistar female rats [4]; [9]): 11.3%
% Time Cent (Wistar female rats [4]; [9]): 7.4%
Distance travelled (Wistar female rats [4]; [9]): 8505.8 cm
anxiogenic-like effect of short light duration (Wistar female rats [4]; [10]): reduced the anxiogenic-like effect of short light duration
motor exploratory activity (Wistar female rats [4]; [10]): did not modify
another parameter of exploratory behavior (FIGS. 5 and 6, hyper center) (Wistar female rats [4]; [11]): similarly treated
exploratory behaviors (FIG. 4) (Wistar female rats [4]; [11]): treated with statistical significance
thigmotactic anxiety-like behaviors (FIG. 3) (Wistar female rats [4]; [11]): treated fully and with statistical significance
growth rate [5]: consistently increased the growth rate
growth rate ([5]; listed as TCS): lessened the SL-induced low growth rate
body weight ([5]; TCS 1102 20 mg/kg IP, SL rats): no significant effect
Body weight in percent of initial body weight (d−4) ([5]; d29-t1, during treatment): 162.1%
Body weight in percent of initial body weight (d−4) ([5]; d31-t3, during treatment): 161.0%
Body weight in percent of initial body weight (d−4) ([5]; d33-t5, during treatment): 165.8%
Body weight in percent of initial body weight (d−4) ([5]; d36-t8, during treatment): 168.2%
Body weight in percent of initial body weight (d−4) ([5]; d38-t10, during treatment): 169.5%
Body weight in percent of initial body weight (d−4) ([5]; d40-t12, during treatment): 168.9%
Body weight in percent of initial body weight (d−4) ([5]; d43-t15, during treatment): 171.4%
Body weight in percent of initial body weight (d−4) ([5]; d45-t17, during treatment): 172.9%
Body weight in percent of initial body weight (d−4) ([5]; d47-t19, during treatment): 173.2%
Body weight in percent of initial body weight (d−4) ([5]; d50-t22, during treatment): 173.9%
Body weight in percent of initial body weight (d−4) ([5]; d52-t24, during treatment): 176.9%
Body weight in percent of initial body weight (d−4) ([5]; d54-t26, during treatment): 174.7%
depression-related behavior in the FST (Wistar female rats [6]): no significant effect
effect on the AE (Wistar female rats [7]; SL-TCS vs SL-DMSO, 20 mg/kg IP): Did not significantly modify
effect on the % OAE (Wistar female rats [7]; [12]): Tended to reduce the decrease; also recorded: Increased
effect on the % TOA (Wistar female rats [7]; [12]): Did not significantly reduce the decrease; also recorded: Did not significantly modify
anxiogenic-like effect of short light duration (Wistar female rats [7]; TCS 1102 20 mg/kg IP): tended to reduce
Number of arm entries (AE) (Wistar female rats [7]; [13]): 16.8
Percentage of open arm entries (% OAE) (Wistar female rats [7]; [13]): 32.0%
Percentage of time spent in open arms (% TOA) (Wistar female rats [7]; [13]): 23.1%
